As usually defined, the IC50 is the concentration at which inhibition is half-maximal.

Counter-ions that a name gives are not always drawn.

In this test the target is T1, recombinant human cytosolic PEPCK (GST-PEPCK) (Homo sapiens, UniProt P35558).
T1 construct: made in house; host or cells: E. coli
T1 sequence (P35558 1-622): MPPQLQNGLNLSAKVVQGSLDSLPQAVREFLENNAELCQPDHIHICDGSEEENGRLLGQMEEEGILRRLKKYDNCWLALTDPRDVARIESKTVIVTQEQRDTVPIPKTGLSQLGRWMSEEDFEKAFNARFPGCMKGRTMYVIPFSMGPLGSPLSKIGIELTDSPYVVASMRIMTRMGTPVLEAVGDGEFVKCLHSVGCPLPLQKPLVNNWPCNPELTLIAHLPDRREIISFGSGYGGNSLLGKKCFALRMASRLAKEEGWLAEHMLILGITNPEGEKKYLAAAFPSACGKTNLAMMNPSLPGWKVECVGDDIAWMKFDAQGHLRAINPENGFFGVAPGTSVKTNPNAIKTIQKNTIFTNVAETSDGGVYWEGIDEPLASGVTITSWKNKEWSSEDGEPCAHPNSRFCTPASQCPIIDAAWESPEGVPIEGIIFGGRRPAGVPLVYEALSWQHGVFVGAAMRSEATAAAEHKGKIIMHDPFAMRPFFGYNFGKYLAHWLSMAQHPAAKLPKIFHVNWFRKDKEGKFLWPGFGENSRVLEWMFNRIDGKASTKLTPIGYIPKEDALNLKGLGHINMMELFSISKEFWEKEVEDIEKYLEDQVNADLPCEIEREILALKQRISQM
In words: PEPCK enzyme assay (coupled to pyruvate kinase / lactate dehydrogenase, absorbance at 340 nm). The class given is biochemical. The conditions noted are these: in vitro PEPCK enzymatic assay; GTP at 3 fold and OAA at 10 fold Km; final DMSO 10%; room temperature, twenty minutes. Here is the method:
E. coli cells expressing GST-PEPCK were suspended in 5 volumes of lysis buffer (50 mM Tris-hydroxymethyl aminomethyl (TRIS), 150 mM sodium chloride (NaCl), 10 mM ethylene-diametetraacetic acid (EDTA), 5 mM dithiothreitol(DTT), 1% Nonidet P-40, pH 7.4) in the presence of protease inhibitors, incubated with lysozyme at 200 micrograms/ml for 30 min. at room temperature, and sonicated 4×30 seconds at 4 degrees C. After centrifugation at 12,000×g for 20 min. to remove insoluble material, the supernatant was loaded onto glutathione Sepharose (Pharmacia), washed with lysis buffer followed by washing with lysis buffer in the absence of NP-40. GST-PEPCK was eluted with the same buffer containing 20 mM glutathione. The eluted protein was concentrated and dialyzed against 25 mM Hepes(N-[2-hydroxyethyl]piperazine-N′[2-ethanesulfonic acid), 150 mM NaCl, 2.5 mM EDTA, 5 mM DTT, 30% glycerol, pH 7.4, and stored at −20° C.
The inhibitory effect of the compounds of the present invention on PEPCK enzymatic activity was determined using recombinant human cytosolic PEPCK, expressed and purified from E.coli as a GST-fusion. Guanosine triphosphate (GTP) and manganese dependent PEPCK enzyme activity catalyzed the decarboxylation of oxalacetate leading to the formation of guanosine diphosphate (GDP) and phosphoenol pyruvate (PEP). This reaction is coupled to pyruvate kinase and lactate dehydrogenase catalyzed reactions and the overall reaction rate determined by measuring the change in absorbance at 340 nm (Chang, H. C. and Lane M. D., J. Biol. Chem. 241:2413–2420, 1966). The following modifications were made to the protocol: 2.5 μg of recombinant, human cytosolic glutathione-S-transferase (GST)-PEPCK was added to a reaction mixture at room temperature which contained 0.3 mM GTP, 0.3 mM oxaloacetate (OAA), 3 mM magnesium chloride (MgCl2), 0.075 mM manganese chloride (MnCl2), 30 mM potassium phosphates (KPO4), pH 7.6, 1 mM dithiothreitol (DTT), 0.2 mM adenosine diphosphate (ADP), 1 mM nicotinamide adenine dinucleotide, reduced form (NADH), 0.9 Units/ml each of pyruvate kinase and lactate dehydrogenase and 1 mg/ml bovine serum albumin (BSA). Test compounds were added such that final concentration of DMSO was 10%. Reactions were run for twenty minutes.
Km values for GTP and OAA were determined according to Michelis-Menton conditions as described in Comish-Bowden (Fundamentals of Enzyme Kinetics, 1995) in essentially the coupled assay conditions described above. […] Test compounds were added to reactions over a range of concentrations and IC50's were calculated from plots of inhibitor concentration versus enzyme rate. This method of determination of IC50 values is equally applicable to calculations based on PEPCK cellular assay.

Take `Cn1cnc(S(=O)(=O)Nc2ccc(Cc3nc4c([nH]3)c(=O)n(Cc3ccccc3F)c(=O)n4CC3CC3)cc2)c1` [Example 14, 1-Methyl-1H-imidazole-4-sulfonic acid {4-[3-cyclopropylmethyl-1-(2-fluoro-benzyl)-2,6-dioxo-2,3,6,7-tetrahydro-1H-purin-8-ylmethyl]-phenyl}-amide]: the IC50 is 410 nM. The result for `CCCCn1c(=O)n(Cc2ccccc2)c(=O)c2[nH]c(Cc3ccc(NS(C)(=O)=O)cc3)nc21` [Example 24, N-[4-(1-Benzyl-3-butyl-2,6-dioxo-2,3,6,7-tetrahydro-1H-purin-8-ylmethyl)-phenyl]-methanesulfonamide] reads 7550 nM; that for `Cc1nn(C)c(Cl)c1S(=O)(=O)Nc1ccc(Cc2nc3c([nH]2)c(=O)n(Cc2ccccc2F)c(=O)n3CC2CC2)cc1` [Example 1, 5-Chloro-1,3-dimethyl-1H-pyrazole-4-sulfonic acid {4-[3-cyclopropylmethyl-1-(2-fluoro-benzyl)-2,6-dioxo-2,3,6,7-tetrahydro-1H-purin-8-ylmethyl]-phenyl}-amide], 290 nM. Then `Cc1nc(S(=O)(=O)Nc2ccc(Cc3nc4c([nH]3)c(=O)n(Cc3ccccc3F)c(=O)n4CC3CC3)cc2)cn1C` [Example 13, 1,2-Dimethyl-1H-imidazole-4-sulfonic acid {4-[3-cyclopropylmethyl-1-(2-fluoro-benzyl)-2,6-dioxo-2,3,6,7-tetrahydro-1H-purin-8-ylmethyl]-phenyl}-amide], with 340 nM; and `CS(=O)(=O)Nc1ccc(Cc2nc3c([nH]2)c(=O)n(Cc2ccccc2F)c(=O)n3CC2CC2)cc1` [Example 23, N-{4-[3-Cyclopropylmethyl-1-(2-fluoro-benzyl)-2,6-dioxo-2,3,6,7-tetrahydro-1H-purin-8-ylmethyl]-phenyl}-methanesulfonamide], with 1250 nM; and `CCCCn1c(=O)n(Cc2ccccc2F)c(=O)c2[nH]c(Cc3ccc(NS(=O)(=O)c4c(C)nn(C)c4Cl)cn3)nc21` [Example 25, 5-Chloro-1,3-dimethyl-1H-pyrazole-4-sulfonic acid {6-[3-butyl-1-(2-fluoro-benzyl)-2,6-dioxo-2,3,6,7-tetrahydro-1H-purin-8-ylmethyl]-pyridin-3-yl}-amide], with 880 nM.

For the molecule `O=c1c2[nH]c(Cc3ccc(NS(=O)(=O)c4cccnc4)cc3)nc2n(CC2CC2)c(=O)n1Cc1ccccc1F` [Example 22, Pyridine-3-sulfonic acid {4-[3-cyclopropylmethyl-1-(2-fluoro-benzyl)-2,6-dioxo-2,3,6,7-tetrahydro-1H-purin-8-ylmethyl]-phenyl}-amide trifluoro-acetic acid salt], the IC50 is 1950 nM.

For `CN(C)S(=O)(=O)Nc1ccc(Cc2nc3c([nH]2)c(=O)n(Cc2ccccc2F)c(=O)n3CC2CC2)cc1` [Example 17, N-{4-[3-Cyclopropylmethyl-1-(2-fluoro-benzyl)-2,6-dioxo-2,3,6,7-tetrahydro-1H-purin-8-ylmethyl]-phenyl}-N,N-dimethylsulfamide], the IC50 came out at 960 nM. The result for `CC(=O)Nc1ccc(S(=O)(=O)Nc2ccc(Cc3nc4c([nH]3)c(=O)n(Cc3ccccc3F)c(=O)n4CC3CC3)cc2)cc1` [Example 20, N-(4-{4-[3-Cyclopropylmethyl-1-(2-fluoro-benzyl)-2,6-dioxo-2,3,6,7-tetrahydro-1H-purin-8-ylmethyl]-phenylsulfamoyl}-phenyl)-acetamide] reads 6250 nM; that for `COc1cccc(S(=O)(=O)Nc2ccc(Cc3nc4c([nH]3)c(=O)n(Cc3ccccc3F)c(=O)n4CC3CC3)cc2)c1` [Example 3, N-{4-[3-Cyclopropylmethyl-1-(2-fluoro-benzyl)-2,6-dioxo-2,3,6,7-tetrahydro-1H-purin-8-ylmethyl]-phenyl}-3-methoxy-benzenesulfonamide], 1200 nM; that for `CCCCn1c(=O)n(Cc2ccccc2)c(=O)c2[nH]c(Cc3ccc(NS(=O)(=O)c4ccc(C)cc4)cc3)nc21` [Example 21, N-[4-(1-Benzyl-3-butyl-2,6-dioxo-2,3,6,7-tetrahydro-1H-purin-8-ylmethyl)-phenyl]-4-methyl-benzenesulfonamide], 7650 nM. With `CCCCn1c(=O)n(Cc2ccccc2F)c(=O)c2[nH]c(Cc3ccc(S(=O)(=O)Nc4ccccn4)cc3)nc21` [Example 28, 4-[3-Butyl-1-(2-fluoro-benzyl)-2,6-dioxo-2,3,6,7-tetrahydro-1H-purin-8-ylmethyl]-N-pyridin-2-yl-benzenesulfonamide], the IC50 was 2400 nM. The result for `O=c1c2[nH]c(Cc3ccc(NS(=O)(=O)c4cccc(F)c4)cc3)nc2n(CC2CC2)c(=O)n1Cc1ccccc1F` [Example 4, N-{4-[3-Cyclopropylmethyl-1-(2-fluoro-benzyl)-2,6-dioxo-2,3,6,7-tetrahydro-1H-purin-8-ylmethyl]-phenyl}-3-fluoro-benzenesulfonamide] reads 2550 nM; that for `Cc1nn(C)c(Cl)c1S(=O)(=O)N(C)c1ccc(Cc2nc3c([nH]2)c(=O)n(Cc2ccccc2F)c(=O)n3CC2CC2)cc1` [Example 18, 5-Chloro-1,3-dimethyl-1H-pyrazole-4-sulfonic acid {4-[3-cyclopropylmethyl-1-(2-fluoro-benzyl)-2,6-dioxo-2,3,6,7-tetrahydro-1H-purin-8-ylmethyl]-phenyl}-methyl-amide], 2050 nM; that for `O=c1c2[nH]c(Cc3ccc(NS(=O)(=O)c4cnc(Cl)c(Br)c4)cc3)nc2n(CC2CC2)c(=O)n1Cc1ccccc1F` [Example 5, 5-Bromo-6-chloro-pyridine-3-sulfonic acid {4-[3-cyclopropylmethyl-1-(2-fluoro-benzyl)-2,6-dioxo-2,3,6,7-tetrahydro-1H-purin-8-ylmethyl]-phenyl}-amide], 4580 nM.

On to `CCCCn1c(=O)n(Cc2ccccc2F)c(=O)c2[nH]c(Cc3ccc(S(=O)(=O)Nc4ccncc4)cc3)nc21` [Example 29, 4-[3-Butyl-1-(2-fluoro-benzyl)-2,6-dioxo-2,3,6,7-tetrahydro-1H-purin-8-ylmethyl]-N-pyridin-4-yl-benzenesulfonamide], for which the IC50 turned out to be 2400 nM.

Take `Cc1noc(C)c1S(=O)(=O)Nc1ccc(Cc2nc3c([nH]2)c(=O)n(Cc2ccccc2F)c(=O)n3CC2CC2)cc1` [Example 12, 3,5-Dimethyl-isoxazole-4-sulfonic acid {4-[3-cyclopropylmethyl-1-(2-fluoro-benzyl)-2,6-dioxo-2,3,6,7-tetrahydro-1H-purin-8-ylmethyl]-phenyl}-amide]: the IC50 is 790 nM. The result for `Cc1nn(C)c(Cl)c1S(=O)(=O)Nc1cccc(Cc2nc3c([nH]2)c(=O)n(Cc2ccccc2F)c(=O)n3CC2CC2)c1` [Example 6, 5-Chloro-1,3-dimethyl-1H-pyrazole-4-sulfonic acid {3-[3-cyclopropylmethyl-1-(2-fluoro-benzyl)-2,6-dioxo-2,3,6,7-tetrahydro-1H-purin-8-ylmethyl]-phenyl}-amide] reads 1100 nM. With `CCCCn1c(=O)n(Cc2ccccc2F)c(=O)c2[nH]c(Cc3ccc(S(=O)(=O)Nc4c(C)nn(C)c4C)cc3)nc21` [Example 32, 4-[3-Butyl-1-(2-fluoro-benzyl)-2,6-dioxo-2,3,6,7-tetrahydro-1H-purin-8-ylmethyl]-N-(1,3,5-trimethyl-1H-pyrazol-4-yl)-benzenesulfonamide], the IC50 was 6450 nM.

The values above are taken from patent US7148229B2, “Sulfonamide substituted xanthine derivatives” (Hoffman-La Roche Inc., priority 2003, dated 2006).
